Here are results for 53 compounds from PubChem BioAssay AID449762 (Southern Research Specialized Biocontainment Screening …, 2010).

Structures are written as SMILES. Inconclusive results are not listed.

In the assay the test system is M. tuberculosis H37Rv growth inhibition, 7H9 media. Nature of the assay: M. tuberculosis growth inhibition, HTS (AID 449762).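 For all read-outs here: bacterial growth assessed after seven days of incubation.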 To be noted: for IC90: measured here: IC90 growth inhibition.

On to `CSc1cccc(CNC(=O)C2CCC(=O)N(Cc3cccc(C(F)(F)F)c3)C2)c1` (stereo not given), for which the half-inhibitory concentration (IC50) (as a rule, the concentration at which inhibition is half-maximal) is 26.6 µM and the 90% effect concentration (IC90) (usually the concentration needed for an effect of 90%) stood at 30.6 µM.
The corresponding values for `NNC(=S)Nc1ccccc1Cl` are 24.4 µM and 27.8 µM.
For `COc1cc(OC)cc(-c2cc3nc(C)c(CCC(=O)NC(C)CCc4ccco4)c(C)n3n2)c1` (stereo not given) the same measures were 44.3 µM and above 100 µM.
For `c1ccc(C2[C@H]3CN(CC4CCCCC4)[C@H](c4ccccc4)C34CC2(c2cccnc2)C4)cc1` (stereo not given in full) the same measures were 31.4 µM and 41.5 µM.
As to `CC(C)(C)NC(=O)C(c1c[nH]c2ccccc12)N(C(=O)Cn1nnc(-c2ccc(F)cc2)n1)c1cccc(O)c1` (stereo not given), the half-maximal inhibitory concentration (IC50) was 64 µM and the IC90 is above 100 µM.
For `CCCCCCCCCCC[N+](C)(C)CC/C=C1/c2ccccc2Sc2ccc(Cl)cc21` the same measures were 7.04 µM and 8.09 µM.
In the case of `Cn1nc(-c2ccc(N3CCCCC3)c(NC(=O)c3ccco3)c2)c2ccccc2c1=O`, the IC50 was 2.32 µM and the IC90 was 16.1 µM.
For `CCCCC(=O)Nc1sc2c(c1C(=O)OCC)CCC(C=O)=C2Cl` the same measures were 14.6 µM and 44.5 µM.
The corresponding values for `Cc1ccc(-n2cccc2C(=S)N=P(N(C)C)(N(C)C)N(C)C)cc1` are 18.4 µM and 25.5 µM.
For `Brc1ccc2c(c1)C(OC1CN3CCC1CC3)c1ccccc1CS2` (stereo not given) the same measures were 25.2 µM and 28.4 µM.
For the compound `Cc1ccc(Nc2nc(N)nc(CN3CCc4ccccc4C3)n2)cc1`, the half-inhibitory concentration (IC50) was 2.2 µM and the 90% effect concentration (IC90) was 8.89 µM.
For `COc1ccccc1N1CCN(CCCCOc2cccc3ccccc23)CC1` the same measures were 34 µM and 44.5 µM.
With `Cc1c(CCC(=O)NCCCn2ccnc2)c(=O)oc2c(C)c3occ(C(C)(C)C)c3cc12`, the IC50 was 23.1 µM and the IC90 came out at 36.3 µM.
For `COC(=O)C1C(O)C(C)C(O)C(C)/C=C\C=C(/C)C(=O)Nc2c(C)c(OC(C)=O)c3c(c2O)C(=O)C(C)=C2OCOC(=C23)/C(C)=C/C(C)(O)C(O)C(C)C1O` (stereo not given) the same measures were below 0.2 µM and below 0.2 µM.
The corresponding values for `NNC(=S)NCc1ccc2c(c1)OCO2` are 23.8 µM and 26.8 µM.
Consider `CC1(c2ccc(Cl)c(Cl)c2)NC(=S)N2C1NC(=S)N2c1ccccc1` (stereo not given), for which the 90% effect concentration (IC90) is above 100 µM.
In the case of `O=C(Nc1ncc(Cc2ccccc2Cl)s1)C1=NCCN1`, the IC50 was 0.43 µM and the IC90 is 92.9 µM.
For `COc1ccc(N/C=C/C(=O)c2sc(-c3ccccc3)nc2C)cc1` the same measures were 30.8 µM and 55.4 µM.
`CCCOc1cccc(C(=O)NC(=S)Nc2ccc(N3CCN(C)CC3)cc2)c1`: the IC90 is above 100 µM.
Take `Cc1onc(-c2ccccc2Cl)c1C(=O)Oc1cccc2cccnc12`: the IC50 is 2.84 µM and the 90% effect concentration (IC90) turned out to be 4.24 µM.
In the case of `COc1cccc(-c2cnc(NCc3cc(Cl)ccc3O)n2C)c1`, the IC50 is 19.1 µM and the IC90 was determined as 22.9 µM.
For `CCCCOC(=O)CSc1nnc(-c2ccc(Cl)cc2Cl)o1` the same measures were below 0.2 µM and 1.85 µM.
For `Cc1ccc(NC(=O)COC(=O)CCc2c[nH]c3ccccc23)cc1[N+](=O)[O-]` the same measures were 0.68 µM and 4.74 µM.
The corresponding values for `CC(C)NC(=S)N/N=C/c1cc(Br)ccc1O` are 6.79 µM and 18.3 µM.
Turning to `CCCNC(=O)NC(=O)COc1ccc2oc3ccccc3c2c1`, the IC90 was above 100 µM.
As to `Cc1ccc(S(=O)(=O)NNC(=O)c2cc([N+](=O)[O-])c(C)c([N+](=O)[O-])c2)cc1`, the IC50 was 7.57 µM and the IC90 amounted to 12.5 µM.
The corresponding values for `S=C(NCCN1CCOCC1)N/N=C/c1cccs1` are 5.55 µM and 6.22 µM.
On to `CCN(CC)C(=O)c1cc([N+](=O)[O-])cc2c1-c1ccc([N+](=O)[O-])cc1C2=C(C#N)C#N`, for which the IC50 is 21.3 µM and the 90% effect concentration (IC90) came to 23.8 µM.
The corresponding values for `CCOC(=O)c1ccc(N=Cc2nc3ccccc3n2C)cc1` are 63.5 µM and above 100 µM.
For `O=S(=O)(Nc1ccc2[nH]ncc2c1)c1ccccc1Cl` the same measures were 11.6 µM and 19.5 µM.
On to `COC(=O)C1=C(C)NC(=O)/C1=C\c1cc(C)n(-c2cccc(C)c2)c1C`, for which the IC90 was above 100 µM.
On to `CCCn1nnnc1NC(=O)c1ccc(C)cc1Cl`, for which the IC50 is 7.89 µM and the IC90 is 19.4 µM.
Consider `CCOc1cc(/C=N\NC(=O)Cn2nc([N+](=O)[O-])cc2C)ccc1OCc1cccc2ccccc12`, for which the IC90 is above 100 µM.
On to `CC[C@@H](C)[C@H](CN[C@H](CNC)C(C)C)NC[C@@H](C)c1ccc(CC(C)C)cc1`, for which the IC50 was 11.3 µM and the concentration for an effect of 90% (IC90) was 12.6 µM.
For `Clc1nc2c(-c3ccccc3)nnn2c2ccccc12` the same measures were 9.39 µM and 16.6 µM.
The corresponding values for `O=c1oc2ccccc2c(O)c1/C=C1\C=Nc2ccccc21` are 16.6 µM and 39.8 µM.
The corresponding values for `CCCc1ccc(C2=Nn3c(nnc3C(C)C)SC2)cc1` are 18.7 µM and 29.7 µM.
For the compound `COC(=O)[C@@H](NC(=O)O[C@@H]1C(=O)c2ccc(OC)cc2O[C@H]1c1cccc(C(F)(F)F)c1)C(C)C`, the IC50 was 56.2 µM and the IC90 was above 100 µM.
For `O=c1[nH]c(CSc2cccc[n+]2[O-])nc2ccccc12` the same measures were 96.4 µM and above 100 µM.
The corresponding values for `CCOC(=O)COc1ccc2c(c1)C(=O)CC(C)(c1cccnc1)O2` (stereo not given) are 9.2 µM and 18.4 µM.
For `O=c1cc(-c2ccccc2Cl)oc2ccc([N+](=O)[O-])c(O)c12` the same measures were 11.9 µM and 15.6 µM.
In the case of `COC(=O)c1ccc(CSc2nc(C(F)(F)F)c3c(c2C#N)CCC3)o1`, the IC50 was 47.1 µM and the IC90 is above 100 µM.
For the compound `N#CCn1c(CCl)nc2ccccc2c1=O`, the IC50 was 5.21 µM and the IC90 was determined as 17.4 µM.
In the case of `CCc1c(C2(O)CCCCC2)[nH]c2ccc(C(F)(F)F)cc12`, the IC50 is 28.4 µM and the IC90 is above 50 µM.
The corresponding values for `CCC1CSC(Nc2ccc(C(=O)/C=C/c3cccc(C)c3)cc2)=N1` (stereo not given) are 18.9 µM and 27.3 µM.
The corresponding values for `COc1cc(C(=O)/C=C/c2cccnc2)c([N+](=O)[O-])cc1OC` are 5.52 µM and 8.56 µM.
For `Cc1cccc(NC(=O)c2nc[nH]c2C(=O)N[C@H](C)c2ccccc2)c1` the same measures were 3.63 µM and above 100 µM.
As to `COc1ccc(CN(CCC(c2ccccc2)c2ccc(OC(C)C)cc2)C(=O)CCl)cc1OC` (stereo not given), the IC50 is 6.53 µM and the IC90 is 12.5 µM.
With `COc1ccccc1Nc1nc(N)nc(CCl)n1`, the IC50 was 1.67 µM and the IC90 was 8.82 µM.
In the case of `c1ccc2c(C3=NNC(=NC4CCCCC4)SC3)c[nH]c2c1`, the IC50 is 42.7 µM and the 90% effect concentration (IC90) stood at 47.2 µM.
The corresponding values for `O=C(/C=C/c1cc(Br)ccc1O)c1ccco1` are 7.96 µM and 13.4 µM.
With `CC(=O)N1C(Nc2ccc(Cl)cc2)CCN1c1ccccc1` (stereo not given), the IC90 is above 100 µM.
Consider `CN1CCN(Cn2cc(/C=C/C(=O)c3ccccc3)c3ccccc32)CC1`, for which the IC50 is 7.95 µM and the concentration for an effect of 90% (IC90) turned out to be 26.3 µM.
